Test results from patent US8686000B2, “Herbicidally active ketosultams and diketopyridines” (Bayer Cropscience AG, priority 2010, dated 2014).

Tested on: corn
Experiment: Post-emergence compatibility with crop plants
Type: in vivo
Settings: 320 grams per hectare, scored visually after 3 to 4 weeks
Protocol: Post-emergence herbicidal action against weed plants and compatibility with crop plants Seeds of monocotyledonous and dicotyledonous weed plants are set out in cardboard pots in sandy loam soil, covered with soil, and cultivated under glass under good growth conditions. Two to three weeks after sowing, the trial plants are treated at the three-leaf stage. The inventive compounds, formulated as wettable powders or as emulsifiable concentrates, are sprayed onto the surface of the green parts of the plants, at a water application rate of 600 to 800 I/ha (converted). After the trial plants have stood for 3 to 4 weeks under glass under optimum growth conditions, the effect of the inventive compounds is scored visually.

Q: `CCc1cc(Cl)cc(Br)c1-c1c(O)c2scnc2n(CC(F)F)c1=O` [I-a-36] was tested. Which damage in corn did it give?
A: Its damage in corn is “do not exhibit any damage”.

Q: With `Cc1cc(C)c(-c2c(O)c3scnc3n(CC(F)F)c2=O)c(C)c1` [I-a-37] as the compound, how does the damage in corn read?
A: Its damage in corn is “do not exhibit any damage”.

Q: Which damage in corn does the source give for `C#CCn1c(=O)c(-c2c(Cl)cccc2Cl)c(O)c2scnc21` [I-a-44] here?
A: Its damage in corn is “do not exhibit any damage”.

Q: How did the damage in corn turn out when `O=c1c(-c2c(Cl)ccc(C3CC3)c2Cl)c(O)c2scnc2n1CC(F)F` [I-a-83] was run?
A: The damage in corn was “do not exhibit any damage”.

Q: Which damage in corn does the source give for `Cc1ccc(Cl)c(-c2c(O)c3scnc3n(CC(F)(F)F)c2=O)c1Cl` [I-a-86] here?
A: Its damage in corn is “do not exhibit any damage”.

Q: For `Cc1c(Br)ccc(Cl)c1-c1c(O)c2scnc2n(C)c1=O` [I-a-93], which damage in corn is on record?
A: The damage in corn was “do not exhibit any damage”.

Q: `C[N+](C)(C)C.Cc1cc(C)c(-c2c([O-])c3scnc3n(CC(F)F)c2=O)c(C)c1` [I-g-5] was tested. Which damage in corn did it give?
A: The damage in corn was “do not exhibit any damage”.

Q: With `C#CCOc1c(-c2ccccc2C(F)(F)F)c(=O)n(CC#C)c2ncsc12` [I-h-11] as the compound, how does the damage in corn read?
A: Its damage in corn is “do not exhibit any damage”.

Tested on: corn
Experiment: Pre-emergence compatibility with crop plants
Type: in vivo
Settings: 320 grams per hectare, scored visually after 3 to 4 weeks
Excerpt: (§1) Pre-emergence Herbicidal Action against Weed Plants and Compatibility with Crop Plants
(§2) Seeds or rhizome sections of mono- and dicotyledonous weed plants are set out in pots of 9 to 13 cm in diameter in sandy loam soil, and are covered with soil. The herbicides, formulated as emulsifiable concentrates or dusting products, are applied to the surface of the covering earth in different doses in the form of aqueous dispersions or suspensions or emulsions, at a water application rate of 300 to 800 I/ha (converted). The pots are then maintained under glass under optimum conditions for the further cultivation of the plants. After the trial plants have stood for 3 to 4 weeks under glass under optimum growth conditions, the effect of the inventive compounds is scored visually.

Q: For `CCc1cc(Cl)cc(Br)c1-c1c(O)c2scnc2n(CC(F)F)c1=O` [I-a-36], which damage in corn is on record?
A: The damage in corn was “do not exhibit any damage”.

Q: How did the damage in corn turn out when `C#CCn1c(=O)c(-c2c(Cl)cccc2Cl)c(O)c2scnc21` [I-a-44] was run?
A: The damage in corn was “do not exhibit any damage”.

Q: How did the damage in corn turn out when `O=c1c(-c2c(Cl)ccc(Br)c2Cl)c(O)c2scnc2n1CC(F)F` [I-a-75] was run?
A: Its damage in corn is “do not exhibit any damage”.

Q: With `Cc1ccc(Cl)c(-c2c(O)c3scnc3n(CC(F)F)c2=O)c1Cl` [I-a-89] as the compound, how does the damage in corn read?
A: Its damage in corn is “do not exhibit any damage”.

Q: Which damage in corn does the source give for `Cc1c(Br)ccc(Cl)c1-c1c(O)c2scnc2n(CC(F)F)c1=O` [I-a-94] here?
A: The damage in corn was “do not exhibit any damage”.

Q: With `Cc1cc(Br)cc(C)c1-c1c(O)c2scnc2n(CC(F)F)c1=O` [I-a-97] as the compound, how does the damage in corn read?
A: Its damage in corn is “do not exhibit any damage”.

Q: `C=CCn1c(=O)c(-c2c(Br)cc(Cl)cc2CC)c(OC(=O)C(C)(C)C)c2scnc21` [I-b-22] was tested. Which damage in corn did it give?
A: The damage in corn was “do not exhibit any damage”.

Q: For `CCOC(=O)Oc1c(-c2c(C)cc(Br)cc2CC)c(=O)n(C)c2ncsc12` [I-c-38], which damage in corn is on record?
A: The damage in corn was “do not exhibit any damage”.

Tested on: oilseed rape
Experiment: Pre-emergence compatibility with crop plants
Type: in vivo
Settings: 320 grams per hectare, scored visually after 3 to 4 weeks
Excerpt: as §1, §2

Q: `C=CCn1c(=O)c(-c2c(C)cc(C)cc2C)c(O)c2scnc21` [I-a-2, 4-allyl-7-hydroxy-6-mesityl[1,3]thiazolo[4,5-b]pyridin-5(4H)-one] was tested. Which “damage in oilseed rape” value did it give?
A: The value was “do not exhibit any damage”.

Q: For `C=CCn1c(=O)c(-c2c(Br)cc(Cl)cc2CC)c(O)c2cn(C)nc21` [I-a-28], which “damage in oilseed rape” value is on record?
A: Its value is “do not exhibit any damage”.

Q: With `CCc1cc(Cl)cc(Br)c1-c1c(O)c2cn(C)nc2n(CC(F)F)c1=O` [I-a-43] as the compound, how does the “damage in oilseed rape” value read?
A: Its value is “do not exhibit any damage”.
